{"source": "patent US20230190687A1", "about": "“SODIUM BUTYRATE FOR USE IN THE PREVENTION OR TREATMENT OF RHINOVIRUS INFECTION” (priority 2020, published 2023)", "key": {"HRV1B Rhinovirus": {"tested_on": "HRV1B Rhinovirus", "experiment": "Conditioned media of treated THP-1 macrophages incubated with HRV1B Rhinovirus; measurable live virus titrated", "format": "cell-based", "details": "then incubated with HRV1B, compared with control (distilled water), n=3", "method": "With reference to FIG. 1, an experiment was carried out to treat leukocytes (the human monocytic THP-1 macrophage cell line differentiated into macrophages) with sodium butyrate, Vitamin D, or with a combination of sodium butyrate and Vitamin D.\nThe leukocyte cells were incubated for a period of time to allow them to release proteins into the surrounding cell culture media (referred to as ‘conditioned media’). The conditioned media was then incubated with HRV1B Rhinovirus. The leukocyte cells were incubated with a solution comprising 0.5 mM sodium butyrate, a solution comprising 0.5 mM Vitamin D, and with a solution comprising both 0.5 mM sodium butyrate and 0.5 mM Vitamin D.\nThe data shown is an average of n=3 independent biological replicates (the titration is an average of ten fold reductions quantified over the three replicates)."}, "influenza infection": {"tested_on": "influenza infection", "details": "exogenous LL-37, mouse models of influenza infection; Barlow et al 2011; cited from earlier work"}, "Rhinovirus": {"tested_on": "Rhinovirus", "details": "exogenous LL-37, cell models; Casanova et al 2020; cited from earlier work"}}, "data": [{"compound": "CCCC(=O)[O-].[Na+]", "note": "[sodium butyrate]", "values": [{"measurement": "reduction in measurable live virus", "setting": "HRV1B Rhinovirus; conditioned media of THP-1 macrophages incubated with 0.5 mM sodium butyrate", "result": "75-80%"}]}, {"compound": "LL-37: a human member of the cathelicidin family (LLGDFFRKSKEKIGKEFKRIVQRIKDFLRNLVPRTES; Antibacterial peptide LL-37; UniProt P49913 134-170, looked up)", "values": [{"measurement": "inflammation", "setting": "influenza infection", "result": "decrease inflammation"}, {"measurement": "survival rates", "setting": "influenza infection", "result": "enhanced survival rates"}, {"measurement": "Rhinovirus induced inflammatory cytokine release", "setting": "Rhinovirus", "result": "reduce Rhinovirus induced inflammatory cytokine release"}]}, {"compound": "Vitamin D", "values": [{"measurement": "reduction in measureable live virus (in words)", "setting": "HRV1B Rhinovirus; conditioned media of THP-1 macrophages incubated with 0.5 mM Vitamin D, or 0.5 mM sodium butyrate and 0.5 mM Vitamin D", "result": "significant reduction"}]}]}
